Assay results as given in patent US8470810B2, “Heterocyclic compounds suitable for treating disorders that respond to modulation of the dopamine D3 receptor” (Abbott GmbH & Co. KG, priority 2004, dated 2013).

How the values were obtained:
[1] = target: T1, human dopamine D3 receptors (Homo sapiens, UniProt P35462); assay: Dopamine D3 receptor binding, displacement of [125I]-iodosulpride; details: for Ki: membranes of HEK-293 cells stably expressing human D3, 0.1 nM [125I]-iodosulpride, 25° C., 60 minutes; for Ki(D2)*/Ki(D3)*: selectivity ratio of the receptor binding constants D2 over D3
T1 construct: expressed in transfected cells
T1 sequence (P35462 whole entry): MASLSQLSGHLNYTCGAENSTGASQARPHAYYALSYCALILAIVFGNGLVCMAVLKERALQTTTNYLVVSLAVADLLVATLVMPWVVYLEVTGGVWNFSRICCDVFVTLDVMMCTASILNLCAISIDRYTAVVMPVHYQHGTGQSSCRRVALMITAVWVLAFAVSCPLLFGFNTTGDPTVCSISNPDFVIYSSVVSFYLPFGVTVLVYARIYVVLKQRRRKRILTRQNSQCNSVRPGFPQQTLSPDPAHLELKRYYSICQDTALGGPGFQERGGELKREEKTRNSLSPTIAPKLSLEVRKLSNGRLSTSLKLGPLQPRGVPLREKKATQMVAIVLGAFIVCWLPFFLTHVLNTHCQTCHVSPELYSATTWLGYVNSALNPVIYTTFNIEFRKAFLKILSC
Method: (§1) The substance to be tested was either dissolved in methanol/Chremophor® (BASFAG) or in dimethyl sulfoxide and then diluted with water to the desired concentration.
(§2) Each assay mixture was run in triplicate.
The incubation buffer contained 50 mM tris, 120 mM NaCl, 5 mM KCl, 2 mM CaCl2, 2 mM MgCl2 and 0.1% bovine serum albumin, 10 μM quinolone and 0.1% ascorbic acid (prepared fresh daily). The buffer was adjusted to pH 7.4 with HCl.
(§3) After having been incubated at 25° C. for 60 minutes, the assay mixtures were filtered through a Whatman GF/B glass fiber filter under vacuum using a cell collecting device. The filters were transferred to scintillation viols using a filter transfer system. After 4 ml of Ultima Gold® (Packard) have been added, the samples were shaken for one hour and the radioactivity was then counted in a Beta-Counter (Packard, Tricarb 2000 or 2200CA). The cpm values were converted into dpm using a standard quench series and the program belonging to the instrument.
(§4) The inhibition curves were analyzed by means of iterative nonlinear regression analysis using the Statistical Analysis System (SAS) which is similar to the “LIGAND” program described by Munson and Rodbard.
(§5) The results of the receptro binding studies are expressed as receptor binding constants Ki(D2) and Ki(D3), respectively, as herein before described, and given in table 6.

[2] = target: T2, human dopamine D2L receptors (long isoform) (Homo sapiens, UniProt P14416); assay: Dopamine D2L receptor binding, displacement of [125I] iodospiperone; details: membranes of HEK-293 cells stably expressing human D2L; 0.01 nM [125I] iodospiperone; 25° C., 60 minutes; read-out: Ki(D2)*
T2 construct: expressed in transfected cells
T2 sequence (P14416 whole entry, canonical isoform): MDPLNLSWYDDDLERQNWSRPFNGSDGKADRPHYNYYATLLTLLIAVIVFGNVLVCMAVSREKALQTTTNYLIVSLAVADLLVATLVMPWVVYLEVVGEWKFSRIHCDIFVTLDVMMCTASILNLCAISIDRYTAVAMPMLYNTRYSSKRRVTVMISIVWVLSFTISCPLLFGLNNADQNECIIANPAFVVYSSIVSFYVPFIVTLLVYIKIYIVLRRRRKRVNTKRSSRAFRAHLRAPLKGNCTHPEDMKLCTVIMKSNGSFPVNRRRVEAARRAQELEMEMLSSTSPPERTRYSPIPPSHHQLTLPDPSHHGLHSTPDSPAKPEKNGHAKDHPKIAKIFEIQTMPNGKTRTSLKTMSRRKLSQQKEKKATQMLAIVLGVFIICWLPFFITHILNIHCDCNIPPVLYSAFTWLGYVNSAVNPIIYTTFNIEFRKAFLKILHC
Method: as §1, §2
The incubation buffer contained 50 mM tris, 120 mM NaCl, 5 mM KCl, 2 mM CaCl2, 2 mM MgCl2 and 0.1% bovine serum albumin. The buffer was adjusted to pH 7.4 with HCl.
as §3, §4, §5

| SMILES | Ki [1] | Ki(D2)*/Ki(D3)* [1] | Ki [2] |
| --- | --- | --- | --- |
| C=CCN1CC[C@@H](c2ccc(NS(=O)(=O)c3ccc(CCCF)cc3)cc2)C1 [Example 107, N-[4-((S)-1-Allyl-pyrrolidin-3-yl)-phenyl]-4-(3-fluoro-propyl)-benzene sulfonamide] | 0.42 nM | 108 | 45.8 nM |
| CCCN1CC[C@@H](c2ccc(NS(=O)(=O)c3ccc(-n4cccn4)cc3)cc2)C1 [Example 69, N-[4-((S)-1-Propyl-pyrrolidin-3-yl)-phenyl]-4-pyrazol-1-yl-benzenesulfonamide] | 2.51 nM | 36 | 90.3 nM |
| CCN1CC[C@@H](c2ccc(NS(=O)(=O)c3ccc(OC(F)(F)F)cc3)cc2)C1 [Example 104, N-[4-((S)-1-Ethyl-pyrrolidin-3-yl)-phenyl]-4-trifluoromethoxy-benzenesulfonamide] | 8.3 nM | 43 | 352 nM |
| CCCN1CC[C@@H](c2ccc(NS(=O)(=O)c3ccc(C(C)C(F)F)cc3)cc2)C1 (stereo partly drawn) [Example 77, 4-(2,2-Difluoro-1-methyl-ethyl)-N-[4-((S)-1-propyl-pyrrolidin-3-yl)-phenyl]-benzenesulfonamide] | 1.33 nM | 37 | 50 nM |
| C=CCN1CC[C@H](c2ccc(NS(=O)(=O)c3ccc(C(C)C(F)(F)F)cc3)cc2)C1 (stereo partly drawn) [Example 112, N-[4-((R)-1-Allyl-pyrrolidin-3-yl)-phenyl]-4-(2,2,2-trifluoro-1-methyl-ethyl)benzenesulfonamide] | 10.3 nM | 116 | 1200 nM |
| CCCN1CC[C@@H](c2ccc(NS(=O)(=O)c3ccc(C(C)C(F)(F)F)cc3)cc2)C1 (stereo partly drawn) [Example 78, N-[4-((S)-1-Propyl-pyrrolidin-3-yl)-phenyl]-4-(2,2,2-trifluoro-1-methyl-ethyl)benzenesulfonamide] | 1.4 nM | 30 | 41.9 nM |
| CCCN1CC[C@@H](c2ccc(NS(=O)(=O)c3ccc(Br)cc3)cc2)C1.Cl [Example 25, 4-Bromo-N-[4-((S)-1-propyl-pyrrolidin-3-yl)-phenyl]-benzenesulfonamide hydrochloride] | 1.6 nM | 60 | 95 nM |
| C=Cc1ccc(S(=O)(=O)Nc2ccc([C@@H]3CCN(CCC)C3)cc2)cc1 [Example 123, N-[4-((S)-1-Propyl-pyrrolidin-3-yl)-phenyl]-4-vinyl-benzenesulfonamide] | 0.45 nM | 91 | 41 nM |
| CCCN1CC(c2ccc(NS(=O)(=O)c3ccc(CCF)cc3)cc2)C1 [Example 56, 4-(2-Fluoro-ethyl)-N-[4-(1-propyl-azetidin-3-yl)-phenyl]-benzenesulfonamide] | 24.4 nM | 109 | 2660 nM |
| C=CCN1CC[C@H](c2ccc(NS(=O)(=O)c3ccc(C4CC4(F)F)cc3)cc2)C1 (stereo partly drawn) [Example 90, N-[4-((R)-1-Allyl-pyrrolidin-3-yl)-phenyl]-4-(2,2-difluoro-cyclopropyl)benzenesulfonamide] | 11 nM | 25 | 280 nM |
| C=CCN1CC[C@@H](c2ccc(NS(=O)(=O)c3ccc([C@@H](C)CF)cc3)cc2)C1 [Example 113, N-[4-((S)-1-Allyl-pyrrolidin-3-yl)-phenyl]-4-((R)-2-fluoro-1-methyl-ethyl)benzenesulfonamide] | 0.49 nM | 86 | 42.2 nM |
| CC(C)c1ccc(S(=O)(=O)Nc2ccc([C@@H]3CCN(CCCF)C3)cc2)cc1 [Example 38, 4-Isopropyl-N-[4-((S)-1-(3-fluoro-propyl)-pyrrolidin-3-yl)-phenyl]-benzenesulfonamide] | 0.29 nM | 21 | 6.3 nM |
| CCCN1CC[C@@H](c2ccc(NS(=O)(=O)c3ccc(C(C)C)cc3F)cc2)C1 [Example 21, 2-Fluoro-4-isopropyl-N-[4-((S)-1-propyl-pyrrolidin-3-yl)-phenyl]-benzenesulfonamide] | 0.4 nM | 27 | 11 nM |
| CC(C)c1ccc(S(=O)(=O)Nc2ccc([C@@H]3CCN(CC4CC4)C3)cc2)cc1 [Example 94, N-[4-((S)-1-Cyclopropylmethyl-pyrrolidin-3-yl)-phenyl]-4-isopropyl-benzenesulfonamide] | 0.23 nM | 21 | 4.7 nM |
| CCCN1CC[C@@H](c2ccccc2NS(=O)(=O)c2ccc(Br)c(F)c2)C1 [Example 16, 4-Bromo-3-fluoro-N-[2-((S)-1-propyl-pyrrolidin-3-yl)-phenyl]-benzenesulfonamide] | 12.6 nM | 31 | 393 nM |
| CCCN1CC[C@@H](c2ccc(NS(=O)(=O)c3ccc(C(C)(C)CC)cc3)cc2)C1.Cl [Example 2, 4-(1,1-Dimethyl-propyl)-N-[4-((S)-1-propyl-pyrrolidin-3-yl)-phenyl]-benzenesulfonamide hydrochloride] | 0.24 nM | 9 | 2.3 nM |
| CCCc1ccc(S(=O)(=O)Nc2ccc([C@@H]3CCN(CCC)C3)cc2)s1 [Example 89, 5-Propyl-thiophene-2-sulfonic acid [4-((S)-1-propyl-pyrrolidin-3-yl)-phenyl]-amide] | 0.6 nM | 45 | 27 nM |
| CCCN1CC[C@@H](c2ccc(NS(=O)(=O)c3ccc(Br)c(F)c3)cc2)C1 [Example 15, 4-Bromo-3-fluoro-N-[4-((S)-1-propyl-pyrrolidin-3-yl)-phenyl]-benzenesulfonamide] | 1.9 nM | 39 | 74 nM |
| CCCN1CC[C@@H](c2ccc(NS(=O)(=O)c3ccc(SC(F)(F)F)cc3)cc2)C1 [Example 68, N-[4-((S)-1-Propyl-pyrrolidin-3-yl)-phenyl]-4-trifluoromethylsulfanyl-benzenesulfonamide] | 3 nM | 47 | 142 nM |
| CCCN1CC[C@@H](c2ccc(NS(=O)(=O)c3ccc(Cl)s3)cc2)C1 [Example 105, 5-Chloro-thiophene-2-sulfonic acid [4-((S)-1-propyl-pyrrolidin-3-yl)-phenyl]-amide] | 6.1 nM | 51 | 309 nM |
| CCCN1CC[C@@H](c2ccc(NS(=O)(=O)c3ccc(OC(F)(F)F)cc3)cc2)C1.Cl [Example 7, 4-Trifluoromethoxy-N-[4-((S)-1-propyl-pyrrolidin-3-yl)-phenyl]-benzenesulfonamide hydrochloride] | 3.5 nM | 61 | 212 nM |
| CC(C)c1ccc(S(=O)(=O)Nc2ccc([C@@H]3CCN(C)C3)cc2)cc1 [Example 85, 4-Isopropyl-N-[4-((S)-1-methyl-pyrrolidin-3-yl)-phenyl]-benzenesulfonamide] | 0.57 nM | 32 | 18.5 nM |
| CCCN1CC(c2ccc(NS(=O)(=O)c3ccc(-c4cnco4)cc3)cc2)C1 [Example 55, 4-Oxazol-5-yl-N-[4-(1-propyl-azetidin-3-yl)-phenyl]-benzenesulfonamide] | 7.11 nM | 165 | 1170 nM |
| CCCN1CCC(c2ccc(NS(=O)(=O)c3ccc(C(C)C)cc3)cn2)C1 (single isomer, unassigned; (-)) [Example 131, (−)-N-[6-(1-Propyl-pyrrolidin-3-yl)-pyridin-3-yl]-4-isopropyl-benzene-sulfonamide] | 5.8 nM | 74 | 430 nM |
| CCCN1CC[C@@H](c2ccc(NS(=O)(=O)c3ccc(C4CCC4)cc3)cc2)C1 [Example 54, 4-Cyclobutyl-N-[4-((S)-1-propyl-pyrrolidin-3-yl)-phenyl]-benzenesulfonamide] | 0.32 nM | 27 | 8.73 nM |
| CCCN1CC[C@@H](c2ccc(NS(=O)(=O)c3ccc(Br)s3)cc2)C1.Cl [Example 28, 5-Bromo-thiophene-2-sulfonic acid [4-((S)-1-propyl-pyrrolidin-3-yl)-phenyl]-amide hydrochloride] | 3.3 nM | 41 | 133 nM |
| CCCN1CC[C@@H](c2ccc(NS(=O)(=O)c3cc(F)c(Br)cc3F)cc2)C1 [Example 34] | 5.1 nM | 34 | 174 nM |
| CCCN1CC[C@@H](c2ccc(NS(=O)(=O)c3ccc(C)cc3)cc2)C1.Cl [Example 10, 4-Methyl-N-[4-((S)-1-propyl-pyrrolidin-3-yl)-phenyl]-benzenesulfonamide hydrochloride] | 1.9 nM | 60 | 111 nM |
| CCCCOc1ccc(S(=O)(=O)Nc2ccc([C@@H]3CCN(CCC)C3)cc2)cc1 [Example 40, 4-Butyloxy-N-[4-((S)-1-propyl-pyrrolidin-3-yl)-phenyl]-benzenesulfonamide] | 0.46 nM | 40 | 18.2 nM |
